Like-named read-outs stand apart in the source and are kept apart here. Marks after values point to notes of the source that are not given here.

The values that follow come from paper PMC2963127, “Genotoxicity Revaluation of Three Commercial Nitroheterocyclic Drugs: Nifurtimox, Benznidazole, and Metronidazole” (Journal of Parasitology Research, 2009).

For data set [1], the system named is immortalized lymphocytes (Epstein-Barr virus lymphoblastoid cell line). As to the kind of experiment: Long-term exposure cytotoxicity assay (MTS). The class given is cell-based, human. The following applies: 48 hours treatment.
Data set [2] has as its system Salmonella typhimurium TA98. The settings on record: for Specific mutagenic activity (revertant increase/dose unit): linear regression; for Revertant/plate: TA98 without S9.
Data set [3] relates to human leukocytes. Kind of data set: Modified comet assay with ENDOIII for oxidised bases. The following applies: 37°C, 1 hour.
Procedure: Oxidatively generated damage can be evaluated easily by comparing the DNA migration in enzyme-or buffer-treated samples. The comet assay, with the modification of an extra step after lysis in which DNA is digested with the repair enzyme, was performed according to Collins et al. […] ENDOIII was isolated from bacteria containing over-producing plasmids (Collin's Laboratory, Rowett Research Institute, Bucksburn, Aberdeen, UK). The enzyme-treated gels reveal alkali labile sites and strand breaks (ALS/SB) and oxidised bases (ALS/SB + OX). Assuming a linear dose response, subtraction of (ALS/SB) from (ALS/SB + OX) gives a measure of oxidised bases. The SPSS 11 statistical package was used to analyse statistical differences between samples. Statistical differences between controls and treated samples were first determined with the nonparametric Wilcoxon rank-sum test for each experiment. The mean values from the repeated experiments were used in a one-way analysis of variance. Analysis of variance was followed by single or multiple pairwise comparisons. Data were tested for normality and homogeneity of variance. When these criteria were met, the data were compared using Dunnett's version of the t-test.
Data set [4] deals with Salmonella typhimurium TA100. The following applies: for Specific mutagenic activity (revertant increase/dose unit): linear regression; for Revertant/plate: TA100 without S9.
Data set [5] concerns human leukocytes. The class given is cell-based. The following applies: 1 hour treatment, measured immediately after exposure; NFX 0–348 μM, BNZ 0–348 μM, MTZ 0–585 μM.
In data set [6] the test system is human lymphocytes. Kind of data set: Micronucleus (MN) assay, cytokinesis block. In kind it is cell-based. As for the experimental part:
The MN assay was performed using blood samples from healthy, nonsmoking males, as provided by the AVIS (Italian Association of Voluntary Blood Donors). […] Cytochalasin-B was added 44 hours after the start of incubation at a final concentration of 6 μg/mL; at 48 hours, the lymphocytes were treated with the different drugs. […] Each treatment was tested with cells from two donors, performed in duplicate separate cultures (i.e., four cultures were set up for each treatment). After incubation, the lymphocytes were collected and resuspended in a mild hypotonic solution (0.075 M KCl) and then added with an ice-cold 5 : 3 acetic acid : methanol solution. After centrifugation (500 g, 10 min), the pellets were resuspended in cold (-20°C) methanol and maintained at -20°C (at least 24 hours). […] Scoring was done using an […] (Munich, Germany) light microscope at 1000X magnification. […] NDI data were analyzed by Student's t-test.

The conditions of data set [7]: therapeutically treated patients; no reference given; cited from earlier work.

In the case of `O=C(Cn1ccnc1[N+](=O)[O-])NCc1ccccc1` [BNZ, N-benzyl-2-(2-nitroimidazol-1-yl)acetamide], the “Cytotoxic effect on cultured lymphocytes” value in data set [1] is “did not show any significant effects”. The Revertants in data set [2] (TA98 +S9, 5 µg/plate) amounted to 20± 2; in data set [2] (TA98 +S9, 10 µg/plate), 18± 2; in data set [2] (TA98 +S9, 20 µg/plate), 22± 8; in data set [2] (TA98 +S9, 40 µg/plate), 24± 5; in data set [2] (TA98 +S9, 80 µg/plate) it was 23± 4; in data set [2] (TA98 +S9, 125 µg/plate), 34± 2. The Revertants in data set [2] (TA98 +S9, 250 µg/plate) is reported as 43± 9; in data set [2] (TA98 +S9, 500 µg/plate), 44± 6; in data set [2] (TA98 -S9, 5 µg/plate), 10± 2; in data set [2] (TA98 -S9, 10 µg/plate), 16± 4; in data set [2] (TA98 -S9, 20 µg/plate), 14± 6; in data set [2] (TA98 -S9, 40 µg/plate), 15± 1. The Revertants in data set [2] (TA98 -S9, 80 µg/plate) worked out at 14± 2; in data set [2] (TA98 -S9, 125 µg/plate), 26± 3; in data set [2] (TA98 -S9, 250 µg/plate), 39± 3; in data set [2] (TA98 -S9, 500 µg/plate), 45± 5; in data set [4] (TA100 +S9, 5 µg/plate), 406± 13; in data set [4] (TA100 +S9, 10 µg/plate), 811± 55. The Revertants in data set [4] (TA100 +S9, 20 µg/plate) came to 1445± 85; in data set [4] (TA100 +S9, 40 µg/plate), 3117± 169; in data set [4] (TA100 +S9, 80 µg/plate), 4901± 166; in data set [4] (TA100 -S9, 5 µg/plate), 498± 25; in data set [4] (TA100 -S9, 10 µg/plate), 943± 27; in data set [4] (TA100 -S9, 20 µg/plate), 1801± 67. The Revertants amounted to 3344± 104 in data set [4] (TA100 -S9, 40 µg/plate) and 5287± 81 in data set [4] (TA100 -S9, 80 µg/plate). Besides, the “Specific mutagenic activity (revertant increase/dose unit)” value in data set [2] (TA98 with S9 mix) is 0.10 (0.93); in data set [2] (TA98 without S9 mix), 0.07 (0.88); in data set [4] (TA100 with S9 mix), 60.92 (0.98); in data set [4] (TA100 without S9 mix), 64.96 (0.98). For the same compound, the “Specific genotoxic activity, DNA migration/dose unit (II: comet assay modified with ENDOIII, DNA oxidative damage)” value in data set [3] is 0.9077 (r ^2 = 0.8351) μm/μM. Moreover, in data set [4] (TA100), the “Lowest effective dose / concentration significantly increasing the revertant number” value was found to be 5 µg/mL. The Cellular survival rate result in data set [5] is “did not appear to be affected”. Also, the “Effect on MN frequency” value in data set [6] (24-hours treated lymphocytes) is “did not alter MN frequency”; in data set [6] (72 hours treated lymphocytes), “increase of MN frequency”. The MN in data set [6] (24h, 3.8 µM) is 4.0± 0.5 x10-3 BN; in data set [6] (24h, 7.7 µM) it was 3.5± 1.0 x10-3 BN; in data set [6] (24h, 15.4 µM), 2.5± 0.5 x10-3 BN; in data set [6] (24h, 30.7 µM), 4.5± 1.0 x10-3 BN; in data set [6] (24h, 61.5 µM), 3.5± 0.5 x10-3 BN; in data set [6] (24h, 96.1 µM), 3.0± 0.5 x10-3 BN. Also, the MN in data set [6] (24h, 192.1 µM) is recorded as 5.0± 1.0 x10-3 BN; in data set [6] (24h, 384.2 µM) it was 3.5± 0.5 x10-3 BN; in data set [6] (72 hours, 3.8 μM) it was 3.5 ± 1.0 ×10^−3 BN; in data set [6] (72 hours, 7.7 μM) it was 4.0 ± 1.0 ×10^−3 BN; in data set [6] (72 hours, 15.4 μM), 4.0 ± 1.5 ×10^−3 BN; in data set [6] (72 hours, 30.7 μM), 3.5 ± 1.0 ×10^−3 BN. Also, the MN is 3.0 ± 0.5 ×10^−3 BN in data set [6] (72 hours, 61.5 μM); 9.0 ± 0.5 ×10^−3 BN in data set [6] (72 hours, 96.1 μM); 13.0 ± 1.0^b ×10^−3 BN in data set [6] (72 hours, 192.1 μM); 16.5 ± 0.5^b ×10^−3 BN in data set [6] (72 hours, 384.2 μM). The NDI in data set [6] (24h, 3.8 µM) is 1.97± 0.11; in data set [6] (24h, 7.7 µM), 1.97± 0.07; in data set [6] (24h, 15.4 µM) it was 2.00± 0.06; in data set [6] (24h, 61.5 µM) it was 1.99± 0.07; in data set [6] (24h, 96.1 µM), 2.01± 0.03; in data set [6] (24h, 192.1 µM), 2.07± 0.07. For the same compound, the NDI in data set [6] (72 hours, 3.8 μM) is 1.93 ± 0.11; in data set [6] (72 hours, 7.7 μM) it was 2.00 ± 0.07; in data set [6] (72 hours, 15.4 μM), 1.98 ± 0.06; in data set [6] (72 hours, 30.7 μM), 1.99 ± 0.05; in data set [6] (72 hours, 61.5 μM), 2.06 ± 0.07; in data set [6] (72 hours, 96.1 μM), 2.05 ± 0.03. The NDI in data set [6] (72 hours, 192.1 μM) came to 2.00 ± 0.07; in data set [6] (72 hours, 384.2 μM), 1.93 ± 0.10. In addition, the “NDI (%)” value in data set [6] (24h, 3.8 µM) was 94± 5%; in data set [6] (24h, 7.7 µM), 94± 3%; in data set [6] (24h, 15.4 µM) it was 95± 3%; in data set [6] (24h, 30.7 µM) it was 97± 2%; in data set [6] (24h, 61.5 µM) it was 95± 3%; in data set [6] (24h, 96.1 µM), 96± 1%. The “NDI (%)” value in data set [6] (24h, 192.1 µM) is reported as 99± 3%; in data set [6] (24h, 384.2 µM), 97± 5%; in data set [6] (72 hours, 3.8 μM), 100 ± 6%; in data set [6] (72 hours, 7.7 μM), 104 ± 4%; in data set [6] (72 hours, 15.4 μM), 102 ± 3%; in data set [6] (72 hours, 30.7 μM) it was 103 ± 3%. For the same compound, the “NDI (%)” value in data set [6] (72 hours, 61.5 μM) came out at 107 ± 4%; in data set [6] (72 hours, 96.1 μM), 106 ± 2%; in data set [6] (72 hours, 192.1 μM), 104 ± 4%; in data set [6] (72 hours, 384.2 μM), 100 ± 6%. The “Effect on nuclear division (NDI)” value in data set [6] (72 hours treated lymphocytes) is “without some decrease of nuclear division”.

As to bleomycin, the “MN frequency in binucleated cells” value in data set [6] (positive control, 6µg/ml) is reported as 26.0± 4.0 x10-3 BN.

Turning to `O=[N+]([O-])c1ccc2c(c1)Cc1ccccc1-2` [2-NF, 2-nitrofluorene], the Revertant/plate in data set [2] (15 μg/plate) stood at 169 ± 7.

For `Cc1ncc([N+](=O)[O-])n1CCO` [MTZ, 2-(2-methyl-5-nitro-1H-imidazol-1-yl)ethanol], in data set [1], the “Cytotoxic effect on cultured lymphocytes” value is “did not show any significant effects”. Besides, the NDI in data set [6] (24h, 5.9 µM) came out at 1.97± 0.07; in data set [6] (24h, 11.7 µM) it was 1.97± 0.05; in data set [6] (24h, 46.8 µM), 2.01± 0.10; in data set [6] (24h, 93.6 µM), 1.99± 0.04; in data set [6] (24h, 146.2 µM), 1.97± 0.10; in data set [6] (24h, 292.4 µM), 2.01± 0.03. Also, the NDI stood at 1.94± 0.06 in data set [6] (24h, 584.8 µM); 1.74± 0.11 in data set [6] (72h, 2.9 µM); 1.75± 0.17 in data set [6] (72h, 5.9 µM); 1.74± 0.10 in data set [6] (72h, 11.7 µM); 1.81± 0.09 in data set [6] (72h, 46.8 µM); 1.73± 0.08 in data set [6] (72h, 93.6 µM). For the same compound, the NDI in data set [6] (72h, 146.2 µM) was determined as 1.84± 0.11; in data set [6] (72h, 292.4 µM), 1.76± 0.07; in data set [6] (72h, 584.8 µM), 1.74± 0.12. For the same compound, the “NDI (%)” value came out at 100± 4% in data set [6] (24h, 5.9 µM); 100± 3% in data set [6] (24h, 11.7 µM); 102± 5% in data set [6] (24h, 46.8 µM); 101± 2% in data set [6] (24h, 93.6 µM); 100± 5% in data set [6] (24h, 146.2 µM); 102± 2% in data set [6] (24h, 292.4 µM). Also, the “NDI (%)” value is recorded as 98± 3% in data set [6] (24h, 584.8 µM); 100± 6% in data set [6] (72h, 2.9 µM); 101± 10% in data set [6] (72h, 5.9 µM); 100± 6% in data set [6] (72h, 11.7 µM); 100± 5% in data set [6] (72h, 93.6 µM); 106±6% in data set [6] (72h, 146.2 µM). The “NDI (%)” value in data set [6] (72h, 292.4 µM) is given as 102± 4%; in data set [6] (72h, 584.8 µM) it was 100± 7%. Besides, in data set [6] (72 hours treated lymphocytes), the “Effect on nuclear division (NDI)” value is given as “did not induce any alteration”. For the same compound, the “Plasmatic concentration in treated patients” value in data set [7] was 8 to 13 µg/mL.

Consider `CCN(CC)CCNc1ccc(CO)c2sc3ccccc3c(=O)c12` [HYC, hycantone], for which the Revertant/plate stood at 870 ± 90 in data set [2] (positive control 75 μg/plate) and 968 ± 103 in data set [4] (positive control 75 μg/plate).

In the case of `NC(=O)C(=Cc1ccc([N+](=O)[O-])o1)c1ccco1` [FYFA, 2-(2-furyl)-3-(5-nitro-2-furyl)acrylamide], the Revertant/plate is listed as 189 ± 16 in data set [2] (20 ng/plate) and 1133 ± 70 in data set [4] (20 ng/plate).

Turning to `CCOS(C)(=O)=O` [ethyl methane sulfonate], the “MN frequency in binucleated cells” value in data set [6] (male, human, 24 h, 1 μM) is 15.0 ± 2.8 ×10^−3 BN; in data set [6] (male, human, 24 h, 120 µg/ml) it was 15.0± 2.8 x10-3 BN.
